In one data set the test system is Japanese and US subjects. Conditions: single-dose (0.03, 0.1, 0.3, 1.0, 2.5, 5.0 mg) escalation, ref earlier single-dose studies quoted in protocol; cited from earlier work.
Data set [1] is described as follows: Isoelectric point (PI) of the study drug. Type of data set: physicochemical. Conditions: study protocol. The method, then: (§1) 5.2.1 Physical and chemical characteristi cs of the study drug
(§2) Molecular Weight: 4560.32 Daltons
(§3) Description: White to off-white powder
(§4) Solubility: Solvent: 20 mM Tris buffer at pH 8.0 and 150 mM sodium chloride.
(§5) Solubility: Not less than 10 mg/mL at 25 ℃.
(§6) 5.2.2 Study Drug Strength and Manufacturer
(§7) The IB I362 dru g produ ct is IBI362 for injection an d consists of 2 mg IB I362 and the […]
(§8) contents are reconstituted with sterile water for injection to obtain a clear solution of […]
(§9) ingredients tris (hydroxymethyl) aminomethane, mannitol, and sucrose." The vial contents are reconstituted with sterile water for injection to obtain a clear solution devoid […]
(§10) The dru g product stren gt h used in this stud y was 2 mg/vial, and the placebo strengt h matched the drug product and was provided b y the Sponsor.
(§11) The drug product and placebo should be stored under refrigerated conditions (2 ℃ […]
(§12) 5.2.4 Mode of administration
(§13) Both IBI362 and placebo will be administered by subcutaneous injection once a week. Each dose should be prepared and injected by the stud y nurse. See the Instructions for Use fo rdetails of the preparation and use of the study drug.
(§14) 5.3.1 Prohibited Medications
(§15) The following m edicatio ns and measur es ar e cont raindicated:
(§16) 1. Growth hormone and its analogues;
(§17) 2. Any systemic corticosteroid (including intravenous, oral, intra-articular) administered for ≥ 7 da ys. […]

Data set [2] has as its system Chinese adults with overweight or obesity. Put plainly: Vital signs and laboratory safety (heart rate, blood pressure, lipase, transaminases), phase 1b trial. Particulars: for Mean change from baseline in heart rate (maximum): placebo 4.3. It is filed as in vivo, human. An excerpt: The primary outcomes were safety and tolerability of mazdutide.
(§18) Summaries for other efficacy and safety variables included descriptive statistics for continuous measures (mean and standard deviation or standard error) and for categorical measures (sample size, frequency and percentages).

Data set [3] is described as follows: Non-compartmental plasma pharmacokinetics, phase 1b trial. Type of data set: in vivo. Conditions: human; for AUC(0-t) / Cmax: geometric mean (CV%); for AUC(0-t): n = 8, read-out: AUC0-168h; for Tmax: median (range); for Tmax / Cmax: n = 8; for Cmax: non-compartmental. The source says:
6.3 PK/ PD assessment vari ables
6.3.1 PK Sample Collection
PK sampling will be performed according to the Schedule of Visits (Table 2, Table 4, Table 6), PK/PD Sampling Schedule (Table 3- 1, Table 3- 2, Table 5-1, Table 5- 2, Table 7-1, Table 7- 2), and ex aminations will be performed at a central laborator y. 3 m L of whole blood was collected into a […] vacutainer, plasma was separated, aliquoted and stored frozen for PK analysis of IBI362. Details of sampling methods, sample storage, transportation and analysis were provided in the Laboratory Manual provided by the central laboratory designated by the sponsor. […]
• Pharmacokinetic parameters, including but not limited to Tmax, Cmax, product under the concentration- time curve (AUC), volum e of distribution (Vd), half-life (T1/2), clearan ce (C L) an d accumulation co efficient (AR); […]

Data set [4] in a line: Solubility of the study drug. It is filed as physicochemical. Particulars: study protocol. The method, then:
as §1, §2, §3, §4, §5, §6, §7, §8, §9, §10, §11, §12, §13, §14, §15, §16, §17

Data set [5] relates to Chinese adults with overweight or obesity. Particulars: in vivo.
Method: The study included a 3-week screening period, a 12-week or 16-week treatment period and an 8-week safety follow-up period. During the treatment period, mazdutide or placebo was subcutaneously administered once weekly with one of the following dose-escalation regimens: 9 mg cohort (3 mg weeks 1-4; 6 mg weeks 5-8; 9 mg weeks 9-12) and 10 mg cohort (2.5 mg weeks 1-4; 5 mg weeks 5-8; 7.5 mg weeks 9-12; 10 mg weeks 13-16) (Figure S1). The escalation regimen in the 10 mg cohort provided relatively slower titration (2.5 mg every 4 weeks) to the target dose of 10 mg, and the escalation regimen in the 9 mg cohort adopted faster titration (3 mg every 4 week). Participants were required to maintain the original diet, exercise and lifestyle during the trial.
The primary outcomes were safety and tolerability of mazdutide. […] The severity of the TEAEs (mild, moderate or severe) and the association between an event and the study drug was assessed by investigators based on pre-specified criteria.
Safety analyses were done in the safety population (defined as all participants who received at least one dose of the study treatment).
Data set [6] shares this test system. As to the kind of experiment: HbA1c and metabolic parameters, phase 1b trial. Type of data set: in vivo, human. The protocol: Secondary outcomes included pharmacokinetics, assessed by maximum observed plasma concentration (Cmax), time at which Cmax was observed (Tmax), terminal elimination half-life (t½), and area under the curve from time zero to 168 h after the first dose (AUC0–168 h) and immunogenicity, assessed by titters of anti-drug antibodies (ADAs) and neutralizing antibodies. Secondary efficacy outcomes included the change from baseline to week 12 (9 mg cohort) or week 16 (10 mg cohort) in body weight, waist circumference, BMI, as well as the change from baseline in HbA1c, lipids, transaminase and serum uric acid levels.
as §18

Setting [7] is: 9 mg cohort, week 12, participants without type 2 diabetes.

The term Tmax denotes the time from dosing to the highest level. As usually defined, the Cmax is the highest concentration seen after dosing.

The structures appear in SMILES notation. Where two headings read alike, the source gives them in different places. Some results are limits rather than exact numbers.

For `CC(C)C[C@H](NC(=O)[C@H](CC(C)C)NC(=O)[C@H](Cc1c[nH]c2ccccc12)NC(=O)[C@H](CCC(=O)O)NC(=O)[C@@H](NC(=O)[C@H](Cc1ccccc1)NC(=O)[C@H](CCC(=O)O)NC(=O)[C@H](CCCCNC(=O)COCCOCCNC(=O)COCCOCCNC(=O)CC[C@H](NC(=O)CCCCCCCCCCCCCCCCCCC(=O)O)C(=O)O)NC(=O)[C@H](C)NC(=O)[C@H](CCCCN)NC(=O)[C@H](CCCCN)NC(=O)[C@H](CCC(=O)O)NC(=O)[C@H](CC(=O)O)NC(=O)[C@H](CC(C)C)NC(=O)[C@H](Cc1ccc(O)cc1)NC(=O)[C@H](CCCCN)NC(=O)[C@H](CO)NC(=O)[C@H](Cc1ccc(O)cc1)NC(=O)[C@H](CC(=O)O)NC(=O)[C@H](CO)NC(=O)[C@@H](NC(=O)[C@H](Cc1ccccc1)NC(=O)[C@@H](NC(=O)CNC(=O)[C@H](CCC(N)=O)NC(=O)C(C)(C)NC(=O)[C@@H](N)Cc1c[nH]cn1)[C@@H](C)O)[C@@H](C)O)C(C)C)C(=O)N[C@@H](CCC(=O)O)C(=O)NCC(=O)NCC(=O)N1CCC[C@H]1C(=O)N[C@@H](CO)C(=O)N[C@@H](CO)C(=O)NCC(N)=O` [Mazdutide], in the data set with Japanese and US subjects, the “maximum tolerated dose (MTD) of single-dose study” value is 2.5 mg. The compound also returned a PI in data set [1] of 5.2. In addition, the “Mean change from baseline in heart rate (maximum)” value in data set [2] (9 mg cohort) was “up to 17.4 beats per minute”. In data set [2] (10 mg cohort, 153 U/L at baseline, upper limit of normal 300 U/L, returned to normal at safety follow-up), the “Lipase level in one participant at week 16” value worked out at 739 U/L. For the same compound, the “Mean change from baseline in heart rate (maximum)” value in data set [2] (10 mg cohort) is reported as at most 11.6 beats per minute. Also, in data set [2] (one participant in 9 mg cohort, one in 10 mg cohort), the “Transaminase elevation in the two participants with ALT/AST increased” value is “mild (within three times upper limit of normal) and transient”. In data set [3] (after first sc dose 2.5 mg), the AUC(0-t) was found to be 21800 ng·h/mL, the Tmax stood at 72.3 h and the Cmax was determined as 179 ng/mL. Moreover, in data set [3] (after first sc dose 3 mg), the AUC(0-t) was 31400 ng·h/mL, the time of peak concentration (Tmax) came to 72.4 h and the peak level (Cmax) was 226 ng/mL. The Solubility entry in data set [4] (20 mM Tris buffer at pH 8.0 and 150 mM sodium chloride, 25 ℃) was “Not less than 10 mg/mL”. Besides, the “Solubility Description” value in data set [4] is recorded as “Sparingly or slightly soluble”. Moreover, in data set [5], the “Participants with treatment-emergent adverse events” value is recorded as 100% and the “Severity of treatment-emergent adverse events” value is on record as “all mild or moderate in severity”. In data set [6] (setting [7]), the “Participants with a 0.4% HbA1c reduction from baseline” value is given as “three” and the “Participants with a 0.8% HbA1c reduction from baseline” value is reported as “two”. The “Participants with a 0.4% HbA1c reduction from baseline” value in data set [6] (10 mg cohort, week 16, participants without type 2 diabetes) is listed as “two”. The “Metabolic parameters including triglycerides, low density lipoprotein cholesterol, total cholesterol and serum uric acid” value in data set [6] (both dose regimens, compared with placebo) is “Greater improvements”. In data set [6] (high-dose cohorts), the “Non-diabetic participants with slight elevation in end-of-treatment HbA1c levels” value was “two”.

The values above are taken from article PMC9561728, “Safety and efficacy of a GLP-1 and glucagon receptor dual agonist mazdutide (IBI362) 9 mg and 10 mg in Chinese adults with overweight or obesity: A randomised, placebo-controlled, multiple-ascending-dose phase 1b trial” (eClinicalMedicine, 2022).
